This note sets out measurements from the supplement of paper PMC4862054.

Test [1] concerns MDA-MB-468. Nature of the test: normalised viability (% of control), CellTiter-Blue; higher = more viable cells (about 100 = DMSO control). To be noted: incubation time: 72 h. The essentials: (§1)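 Breast cancer cell lines in 20 µl suspension were seeded onto 384-well plates pre-loaded with compound dissolved in 5 µl medium, then incubated 72 h. CellTiter-Blue reagent (2.5 µl) was added for 2 h at 37 °C and fluorescence read at 560/590 nm. Each plate was normalised to vehicle (100) and a positive kill control (0), with Z'-factor quality control. The value is normalised viability at one listed concentration of the series.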
In general terms: Resazurin is reduced to fluorescent resorufin, in cell work by metabolically active cells.

The test system of test [2] is BT-549. Described as above. As to conditions: incubation time: 72 h. The essentials:
as §1

Test [3] relates to MDA-MB-231. The test is described as above. As to conditions: incubation time: 72 h. The essentials: as §1
The subject of test [4] is MDA-MB-468. To be noted: 72 h. The essentials:
(§2)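 Breast cancer cell lines (20 µl suspension) were seeded into 384-well plates holding compound at 5 concentrations in 10-fold steps over a compound-specific 10,000-fold range, then incubated 72 h. Cell death was read first by CellTox Green fluorescence (485/520 nm), then viability by CellTiter-Glo luminescence after 10 min at room temperature. Each plate was normalised to 0.1 % DMSO and a positive kill control. EC50 was fitted from the dose-response curves and censored at the top concentration.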

The subject of test [5] is CAL-51. As to conditions: 72 h. The essentials:
as §2

The subject of test [6] is CAL-85-1. To be noted: 72 h. The essentials:
as §2

Test [7] has as its system MDA-MB-468. To be noted: 72 h. The essentials: (§3)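 Breast cancer cell lines in 20 µl suspension were seeded onto 384-well plates pre-loaded with compound dissolved in 5 µl medium, then incubated 72 h. For viability, 2.5 µl CellTiter-Blue was added for 2 h at 37 °C and fluorescence read at 560/590 nm. Each plate was normalised to vehicle and a positive kill control and checked by Z'-factor. EC50 comes from the fitted percent-inhibition dose-response curve, censored at the highest concentration; rows with zero drug sensitivity score were dropped.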
The source holds these as a separate data set.

For test [8], the system named is BT-549. As to conditions: 72 h. The essentials:
as §3

In test [9] the test system is Hs578T. As to conditions: 72 h. The essentials:
as §3

Test [10] relates to MDA-MB-231. To be noted: 72 h. The essentials: as §3
The subject of the next test is MFM-223. As to conditions: 72 h. In a few lines:
as §3

Test [11] concerns SK-BR-3. To be noted: 72 h. The essentials:
as §3

The subject of test [12] is HCC1937. As to conditions: 72 h. In a few lines: as §3
The test system of test [13] is MDA-MB-436. To be noted: 72 h. In a few lines: as §3
Test [14] relates to HCC1599. To be noted: 72 h. The essentials:
as §2

The test system of test [15] is DU-4475. As to conditions: 72 h. In a few lines:
as §2

In test [16] the test system is CAL-120. As to conditions: 72 h. In a few lines: as §2
Test [17] deals with Hs578T. As to conditions: 72 h. In a few lines:
as §2
The source holds these as a separate data set.

Test [18] deals with MDA-MB-231. As to conditions: 72 h. In a few lines: as §2
This is another data set of the same source.

Test [19] relates to SK-BR-3. To be noted: 72 h. The essentials: as §2
The source holds these as a separate data set.

Test [20] relates to HCC1937. To be noted: 72 h. In a few lines:
as §2
This is another data set of the same source.

For test [21], the system named is MDA-MB-436. To be noted: 72 h. In a few lines: as §2
This is another data set of the same source.

A further test relates to BT-474. To be noted: 72 h. The essentials: as §2
The test system of test [22] is HCC1599. As to conditions: 72 h. The essentials:
as §3
This is another data set of the same source.

In the next test the test system is HCC1143. To be noted: 72 h. The essentials:
as §3

Test [23] relates to CAL-120. To be noted: 72 h. The essentials:
as §3
The source holds these as a separate data set.

In a further test the test system is HDQ-P1. In words: normalised viability (% of control), CellTiter-Blue; higher = more viable cells (about 100 = DMSO control). To be noted: incubation time: 72 h. The essentials:
as §1

The subject of test [24] is DU-4475. The description is as above. As to conditions: incubation time: 72 h. In a few lines:
as §1

Test [25] has as its system CAL-51. The description is as above. To be noted: incubation time: 72 h. The essentials: as §1
A further test has as its system MDA-MB-453. The test is described as above. As to conditions: incubation time: 72 h. The essentials: as §1
The test system of another test is CAL-148. The description is as above. As to conditions: incubation time: 72 h. In a few lines:
as §1

Test [26] relates to CAL-85-1. The test is described as above. To be noted: incubation time: 72 h. In a few lines: as §1

Where only a bound is given, the exact number is not on record here.

Take `C[C@@H]1C=C2C(=O)O[C@@H]3CC[C@H](C1)[C@]23O` [Galiellalactone]: the normalised viability in the test with MDA-MB-468 [1] (50 nM) is 101%; in the test with MDA-MB-468 [1] (5000 nM), 80.4%; in the test on MDA-MB-468 [1] (50000 nM), 33.6%; in the test on BT-549 [2] (50 nM), 83.9%; in the test with BT-549 [2] (5000 nM) it was 59.9%; in the test on BT-549 [2] (50000 nM), 7.58%. Further, the normalised viability in the test on MDA-MB-231 [3] (50 nM) came to 100%; in the test on MDA-MB-231 [3] (5000 nM) it was 61.4%; with MDA-MB-231 [3] (50000 nM), 7.78%. Besides, the results for the “EC50, CellTiter-Glo” value in the test on MDA-MB-468 [4], in the test with CAL-51 [5] and with CAL-85-1 [6] were 7120 nM, 2320 nM and 10500 nM, respectively. In addition, the “EC50, CellTiter-Blue viability” value in the test with MDA-MB-468 [7] is 7120 nM; in the test on BT-549 [8], 5580 nM; in the test with Hs578T [9], 44600 nM; in the test on MDA-MB-231 [10] it was 7150 nM; with MFM-223 it was 38200 nM; in the test on SK-BR-3 [11], 12600 nM. In addition, the “EC50, CellTiter-Blue viability” value in the test with HCC1937 [12] was found to be 16400 nM; in the test on MDA-MB-436 [13], 14700 nM.

`COc1cc(Nc2ncc(F)c(Nc3ccc4c(n3)NC(=O)C(C)(C)O4)n2)cc(OC)c1OC` [R406]: the normalised viability in the test on MDA-MB-468 [1] (10 nM) worked out at 104%; with MDA-MB-468 [1] (1000 nM) it was 87.3%; with MDA-MB-468 [1] (10000 nM), 101%; with BT-549 [2] (10 nM), 89.7%; with BT-549 [2] (1000 nM), 77.3%; in the test on BT-549 [2] (10000 nM), 53%. Moreover, the results for the normalised viability in the test with MDA-MB-231 [3] (10 nM), with MDA-MB-231 [3] (1000 nM) and in the test on MDA-MB-231 [3] (10000 nM) were 95.7%, 77.2% and 52.5%, respectively. Besides, the “EC50, CellTiter-Blue viability” value with BT-549 [8] came out at 1030 nM; in the test on MDA-MB-231 [10], 1040 nM.

For `O=c1[nH]c(=O)n([C@H]2C[C@H](O)[C@@H](CO)O2)cc1F` [Floxuridine], the normalised viability stood at 95.5% with MDA-MB-468 [1] (10 nM); 43.7% in the test on MDA-MB-468 [1] (1000 nM); 30.3% with MDA-MB-468 [1] (10000 nM); 96.5% in the test on BT-549 [2] (10 nM); 67.1% in the test on BT-549 [2] (1000 nM); 44.8% in the test on BT-549 [2] (10000 nM). For the same compound, the normalised viability in the test with MDA-MB-231 [3] (10 nM) was 106%; in the test on MDA-MB-231 [3] (1000 nM) it was 58.1%; in the test with MDA-MB-231 [3] (10000 nM), 47.2%. For the same compound, the “EC50, CellTiter-Glo” value in the test with HCC1599 [14] is 27 nM; in the test with MDA-MB-468 [4], 240 nM; in the test with DU-4475 [15] it was 1580 nM; in the test on CAL-120 [16] it was 420 nM; with Hs578T [17], 34 nM; with MDA-MB-231 [18] it was 687 nM. In addition, the “EC50, CellTiter-Glo” value in the test on CAL-51 [5] was found to be 80.3 nM; in the test on SK-BR-3 [19] it was 96.6 nM; in the test on HCC1937 [20] it was 211 nM; in the test with CAL-85-1 [6] it was 79.5 nM; with MDA-MB-436 [21] it was 57.7 nM; with BT-474, 555 nM. Moreover, the “EC50, CellTiter-Blue viability” value is > 10000 nM with HCC1599 [22]; 48.9 nM with MDA-MB-468 [7]; 804 nM in the test on BT-549 [8]; 1630 nM with HCC1143; 118 nM in the test on CAL-120 [23]; 501 nM in the test with Hs578T [9]. The “EC50, CellTiter-Blue viability” value in the test on MDA-MB-231 [10] turned out to be 494 nM; with SK-BR-3 [11], 60.3 nM; with HCC1937 [12], 4070 nM; with MDA-MB-436 [13], 182 nM.

Consider `O=C(c1ccc(OCCN2CCCCC2)cc1)c1c(-c2ccc(O)cc2)sc2cc(O)ccc12` [Raloxifene] (10000 nM), for which the normalised viability in the test on HDQ-P1 was found to be 105%; in the test on DU-4475 [24] it was 113%; with CAL-51 [25] it was 105%; in the test on MDA-MB-453, 45.7%; in the test on CAL-148 it was 125%; in the test on CAL-85-1 [26], 98.6%.

Take `CCS(=O)(=O)c1cccc(-c2cc(C(=O)NC3CCN(C)CC3)c(C)c3[nH]c4ncc(C)cc4c23)c1` [TAK-901] (1000 nM): the normalised viability is 16.6% in the test on HDQ-P1; 41.2% in the test with DU-4475 [24]; 23.8% in the test with CAL-51 [25]; 40.2% in the test on MDA-MB-453; 105% with CAL-148; 30.9% in the test with CAL-85-1 [26].
